# Assay results published in patent publication EP2963022A1, “FUSED HETEROCYCLIC COMPOUND AND PEST CONTROL APPLICATIONS THEREOF” (priority 2013, dated 2014).
# Key:
# Format in all cases: in vivo
# Plutella xylostella = assay: Test Example 6: spray test on cabbage against Plutella xylostella larvae; conditions: 120 h, sprayed 20 mL/cup on cabbage, second instar larvae, 5 days at 25°C, read-out: Death rate
# Protocol: On the other hand, on cabbage at the third leaf stage planted in a polyethylene cup was sprayed, at a rate 20 mL/cup, the test drug solution. After the drug solution was dried, the foliage part was cut off, and then placed in a 50 mL volume cup. Five second instar larvae of Plutella xylostella were released into the cup, and the cup was sealed with a lid. After the cup was kept at 25°C for 5 days, the number of dead insects was counted. The death rate was calculated according to the following equation. Death rate (%) = (Number of deads insects/Number of tested insects) × 100 [formula]
# [1] = test system: Adoxophyes orana fasciata; assay: Test Example 7: spray test on apple tree against Adoxophyes orana fasciata larvae; conditions: in Malus domestica, 168 h, read-out: Death rate
# Protocol: The formulations of Compounds of Present Invention 1-2 and 1-3 as obtained in Formulation Example 5 were diluted with water, so as to have a concentration of the active ingredient of 500 ppm, to prepare a test spray solution.
# On the other hand, an apple tree was planted in a plastic cup, and grown until the seventh-eighth true leaf was spread. To the apple tree was sprayed, at a rate of 20 mL/cup, the test drug solution. After the drug solution was dried, 60 first-instar larvae of Adoxophyes orana fasciata were released, and covered with a plastic cup the bottom of which was cut off and on which a filter paper was put, with the plastic cup cover placed upside-down. After 7 days, the number of dead insects was counted, and the death rate was calculated according to the following equation. Death rate (%) = (Number of deads insects/Number of tested insects) × 100 [formula]
# Musca domestica = assay: Test Example 8: filter paper and sucrose bait test against Musca domestica; conditions: 24 h, read-out: Death rate
# Protocol: The formulation of Compound of Present Invention 1-2 as obtained in Formulation Example 5 was diluted with water, so as to have a concentration of the active ingredient of 500 ppm, to prepare a test drug solution.
# A filter paper having a diameter of 5.5 cm was spread on the bottom of a polyethylene cup having the same diameter and 0.7 ml of the test drug solution was added dropwise onto the filter paper, and 30 mg of sucrose was uniformly placed as bait. Into the polyethylene cup, 10 female imagoes of Musca domestica were released, and the cup was sealed with a lid. After 24 hours, the life and death of Musca domestica was examined, the number of dead insects was counted, and the death rate was calculated according to the following equation. Death rate (%) = (Number of deads insects/Number of tested insects) × 100 [formula]
# Culex pipiens pallens = assay: Test Example 10: larvicidal test in water against Culex pipiens pallens; conditions: 24 h, active ingredient concentration 3.5 ppm in ion-exchanged water, last-instar larvae, one day later, read-out: Death rate
# Protocol: The formulations of Compounds of Present Invention 1-2, 1-3 and 1-8 as obtained in Formulation Example 5 were diluted with water, so as to have a concentration of the active ingredient of 500 ppm, to prepare a test drug solution.
# 0.7 ml of the test drug solution was added to 100 ml of ion-exchanged water (active ingredient concentration: 3.5 ppm). 20 last-instar larvae of Culex pipiens pallens were released into the solution. One day later, the life and death of the Culex pipiens pallens was examined, and the number of dead insects was counted to calculate the death rate. Death rate (%) = (Number of deads insects/Number of tested insects) × 100 [formula]
# [2] = test system: Haemaphysalis longicornis; assay: Test Example 11: coated screw tube contact test against Haemaphysalis longicornis ticks; conditions: 48 h, 2 mg in 0.2 mL acetone coated on inner wall of screw tube, unfed nymphal ticks, after 2 days, read-out: Death rate
# Protocol: Compound of Present Invention 1-24 (2 mg) was weighed in a screw tube (Maruemu No. 5; 27 x 55 mm), and 0.2 mL of acetone was added thereto, and the screw tube was sealed with a cap to dissolve the compound. The screw tube was rotated and inverted to uniformly coat the drug solution onto the whole inner wall of the tube. After removing the cap, the solution was air-dried for about 2 hours, then unfed nymphal ticks, Haemaphysalis longicornis (5 ticks/group) were released, and the tube was sealed with the cap. After 2 days, the number of dead insects was counted, and the death rate was calculated according to the following equation. Death rate (%) = 100 × (Number of deads insects/Number of tested insects) [formula]
SMILES,mortality at 500 ppm (Plutella xylostella) [%],mortality at 500 ppm [1] [%],mortality at 500 ppm (Musca domestica) [%],mortality at 3.5 ppm (Culex pipiens pallens) [%],mortality at 2 mg/tube [2] [%]
CCS(=O)(=O)c1cc(C(=O)OC)ccc1-c1nc2cc(C(F)(F)F)cnc2n1C [1-2],≥ 80,≥ 90,100,≥ 95,
CCOC(=O)c1ccc(-c2nc3cc(C(F)(F)F)ccc3s2)c(S(=O)(=O)CC)c1 [1-24],,,,,100
CCOC(=O)c1ccc(-c2nc3cc(C(F)(F)F)cnc3n2C)c(S(=O)(=O)CC)c1 [1-3],≥ 80,≥ 90,,≥ 95,
CCOC(=O)c1ccc(-c2nc3cc(C(F)(F)F)ccc3n2C)c(S(=O)(=O)CC)c1 [1-8],,,,≥ 95,
